Source: PMC6317804, “The integration of pharmacophore-based 3D QSAR modeling and virtual screening in safety profiling: A case study to identify antagonistic activities against adenosine receptor, A2A, using 1,897 known drugs” (PLoS ONE, 2019)

How the values were obtained:
[1] = target: T1, adenosine receptor 2A (A2A) (Homo sapiens, UniProt P29274); assay: Functional assay monitoring Ca2+ flux (DiscoveRx); assay type: cell-based; set-up: inhibition: dose or concentration left out as unconfirmed; conditions: for inhibition: read-out: IC50, Ca2+, M; for inhibition at up to 10 µM: read-out: IC50, Ca2+
T1 construct: CEREP (Poitiers, France), paid service
T1 sequence (P29274 whole entry): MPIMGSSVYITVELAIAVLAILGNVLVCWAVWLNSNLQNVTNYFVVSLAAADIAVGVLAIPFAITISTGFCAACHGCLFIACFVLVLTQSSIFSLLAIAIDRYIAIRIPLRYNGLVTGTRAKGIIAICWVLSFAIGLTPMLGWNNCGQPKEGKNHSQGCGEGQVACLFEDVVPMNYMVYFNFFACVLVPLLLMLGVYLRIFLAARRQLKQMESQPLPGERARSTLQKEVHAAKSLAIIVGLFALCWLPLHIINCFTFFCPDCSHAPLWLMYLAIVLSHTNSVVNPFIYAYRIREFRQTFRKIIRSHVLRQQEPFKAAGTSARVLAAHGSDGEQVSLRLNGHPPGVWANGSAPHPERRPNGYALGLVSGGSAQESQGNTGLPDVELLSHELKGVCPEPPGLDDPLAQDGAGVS
Experimental: (§1) Competition binding assay using radioactive ligands and functional assay monitoring cAMP were carried out as a paid service provided by CEREP (Poitiers, France). The functional assays monitoring Ca^2+ flux were carried out as a paid service provided by DiscoveRx (Carlsbad, CA).

[2] = target: T1, adenosine receptor 2A (A2A); assay: Competition binding assay using radioactive ligands (CEREP); set-up: inhibition: dose or concentration left out as unconfirmed; conditions: for inhibition at 10 µM: fixed compound concentration of 10 μM;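 on all read-outs here: compounds screened at a single fixed 10 µM concentration for displacement of a radioligand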
Experimental: as §1

[3] = target: T1, adenosine receptor 2A (A2A); assay: Functional antagonist assay monitoring cAMP (CEREP); assay type: cell-based;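 on IC50, cAMP, M: eight-point concentration-response from 0 to 10 µM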
Experimental: as §1

[4] = concentration-response up to 10 μM, read-out: IC50, cAMP
[5] = concentration-response up to 10 μM

Row | Structure (SMILES) | inhibition [1] [%] | inhibition at 10 µM [2] [%] | inhibition at up to 10 µM [3, 4] [%] | also measured
1 | CCCCCOC(=O)Nc1nc(=O)n([C@@H]2O[C@H](C)[C@@H](O)[C@H]2O)cc1F [Capecitabine] | < 50 | < 50 | < 50 | –
2 | CC1=C(C(=O)O)N2C(=O)[C@@H](NC(=O)[C@H](N)c3ccc(O)cc3)[C@H]2SC1 [Cefadroxil] | – | < 50 | < 50 | inhibition at up to 10 µM [1, 5]: < 50%
3 | C=CC1=C(C(=O)O)N2C(=O)[C@@H](NC(=O)/C(=N\O)c3csc(N)n3)[C@H]2SC1 [Cefdinir] | < 50 | < 50 | < 50 | –
4 | C=CC1=C(C(=O)O)N2C(=O)[C@@H](NC(=O)/C(=N\OCC(=O)O)c3csc(N)n3)[C@H]2SC1 [Cefixime] | < 50 | < 50 | < 50 | –
5 | CO[C@@]1(NC(=O)Cc2cccs2)C(=O)N2C(C(=O)O)=C(COC(N)=O)CS[C@@H]21 [Cefoxitin] | < 50 | < 50 | < 50 | –
6 | CC1=C(C(=O)O)N2C(=O)[C@@H](NC(=O)[C@H](N)c3ccccc3)[C@H]2SC1 [Cephalexin] | < 50 | < 50 | < 50 | –
7 | C#C[C@]1(O)CC[C@H]2[C@@H]3CCC4=CCCC[C@@H]4[C@H]3C(=C)C[C@@]21CC [Desogestrel] | < 50 | < 50 | < 50 | –
8 | COc1ccc([C@@H]2Sc3ccccc3N(CCN(C)C)C(=O)[C@@H]2OC(C)=O)cc1 [Diltiazem] | < 50 | < 50 | < 50 | –
9 | COc1cccc2c1C(=O)c1c(O)c3c(c(O)c1C2=O)C[C@@](O)(C(=O)CO)C[C@@H]3O[C@H]1C[C@H](N)[C@H](O)[C@H](C)O1 [Doxorubicin] | – | < 50 | < 50 | IC50 [1, 5]: 2.5 µM
10 | C[C@@H](O)[C@H]1C(=O)N2C(C(=O)O)=C(S[C@@H]3CN[C@H](C(=O)Nc4cccc(C(=O)O)c4)C3)[C@H](C)[C@H]12 [Ertapenem] | < 50 | < 50 | < 50 | –
11 | Cc1cc(C#N)cc(C)c1Oc1nc(Nc2ccc(C#N)cc2)nc(N)c1Br [Etravirine] | – | < 50 | < 50 | inhibition at up to 10 µM [1, 5]: < 50%
12 | NC(N)=Nc1nc(CSCCC(N)=NS(N)(=O)=O)cs1 [Famotidine] | < 50 | < 50 | – | inhibition [3, 4]: < 50%
13 | NC(=O)OCC(COC(N)=O)c1ccccc1 [Felbamate] | < 50 | < 50 | < 50 | –
14 | Cc1onc(-c2c(F)cccc2Cl)c1C(=O)N[C@@H]1C(=O)N2[C@@H]1SC(C)(C)[C@@H]2C(=O)O [Flucloxacillin] | < 50 | < 50 | < 50 | –
15 | NCC1(CC(=O)O)CCCCC1 [Gabapentin] | < 50 | – | – | inhibition ([2]; read-out: %inhibition, binding): < 50%; inhibition ([3]; read-out: IC50, cAMP, M): < 50%
16 | CCC1=C(C)CN(C(=O)NCCc2ccc(S(=O)(=O)NC(=O)N[C@H]3CC[C@H](C)CC3)cc2)C1=O [Glimepiride] | – | < 50 | < 50 | inhibition at up to 10 µM [1, 5]: < 50%
17 | COc1ccc2c(c1)C(=O)N(CCc1ccc(S(=O)(=O)NC(=O)NC3CCCCC3)cc1)C(=O)C2(C)C [Gliquidone] | < 50 | < 50 | < 50 | –
18 | CC(C)[N+]1(C)[C@@H]2CC[C@H]1C[C@@H](OC(=O)C(CO)c1ccccc1)C2 (stereo partly drawn) [Ipratropium bromide] | – | < 50 | – | IC50, Ca2+, M [1, 5]: N.E. (N.E., no effects. Results showing an inhibition or stimulation lower than 50% are considered to represent insignificant effects of the test compounds.); IC50, cAMP, M [3, 5]: N.E. (N.E., no effects. Results showing an inhibition or stimulation lower than 50% are considered to represent insignificant effects of the test compounds.)
19 | COC(=O)C1=C(C)NC(C)=C(C(=O)OC(C)C)C1c1cccc2nonc12 (stereo not drawn) [Isradipine] | < 50 | < 50 | < 50 | –
20 | Nc1nnc(-c2cccc(Cl)c2Cl)c(N)n1 [Lamotrigine] | < 50 | < 50 | < 50 | –
21 | Nc1ccc(O)c(C(=O)O)c1 [Mesalazine] | – | < 50 | < 50 | inhibition at up to 10 µM [1, 5]: < 50%

Row | Structure (SMILES) | inhibition [1] [%] | inhibition at 10 µM [2] [%] | inhibition at up to 10 µM [3, 4] [%] | also measured
22 | COCCc1ccc(OCC(O)CNC(C)C)cc1 (stereo not drawn) [Metoprolol] | < 50 | < 50 | < 50 | –
23 | COc1ccc(OC)c(C(O)CNC(=O)CN)c1 (stereo not drawn) [Midodrine] | < 50 | < 50 | < 50 | –
24 | Cc1[nH]c(=O)c(C#N)cc1-c1ccncc1 [Milrinone] | < 50 | < 50 | < 50 | –
25 | OC(CNCC(O)C1CCc2cc(F)ccc2O1)C1CCc2cc(F)ccc2O1 (stereo not drawn) [Nebivolol] | < 50 | < 50 | < 50 | –
26 | Cc1c(O)cccc1C(=O)N[C@@H](CSc1ccccc1)[C@H](O)CN1C[C@H]2CCCC[C@H]2C[C@H]1C(=O)NC(C)(C)C [Nelfinavir] | – | < 50 | < 50 | inhibition at up to 10 µM [1, 5]: < 50%
27 | O=C1CCCC(=O)C1C(=O)c1ccc(C(F)(F)F)cc1[N+](=O)[O-] [Nitisinone] | – | < 50 | < 50 | inhibition at up to 10 µM [1, 5]: < 50%
28 | NC[C@H](O)c1ccc(O)c(O)c1 [Norepinephrine] | < 50 | < 50 | < 50 | –
29 | CN(C)CCC(c1ccccc1)c1ccccn1 (stereo not drawn) [Pheniramine] | – | < 50 | < 50 | inhibition at up to 10 µM [1, 5]: < 50%
30 | Cc1ccc2c(c1)c1c3n2CCNC3CCC1 (stereo not drawn) [Pirlindole] | – | < 50 | < 50 | inhibition at up to 10 µM [1, 5]: < 50%
31 | O=C(Nc1cccc2c(=O)cc(-c3nnn[nH]3)oc12)c1ccc(OCCCCc2ccccc2)cc1 [Pranlukast] | – | < 50 | < 50 | IC50 [1, 5]: 0.83 µM
32 | CCCNCC(O)COc1ccccc1C(=O)CCc1ccccc1 (stereo not drawn) [Propafenone] | < 50 | < 50 | < 50 | –
33 | Cc1ncc(CO)c(C=O)c1O [Pyridoxal] | < 50 | < 50 | < 50 | –
34 | NC(=O)c1ncn([C@@H]2O[C@H](CO)[C@@H](O)[C@H]2O)n1 [Ribavirin] | < 50 | < 50 | < 50 | –
35 | CN(CCOc1ccc(CC2SC(=O)NC2=O)cc1)c1ccccn1 (stereo not drawn) [Rosiglitazone] | < 50 | < 50 | < 50 | –
36 | C[S+](CC[C@H](N)C(=O)[O-])C[C@H]1O[C@@H](n2cnc3c(N)ncnc32)[C@H](O)[C@@H]1O (stereo partly drawn) [S-Adenosyl-methionine] | – | 74 | < 50 | inhibition at up to 10 µM [1, 5]: < 50%
37 | O=C(Oc1ccccc1C(=O)O)c1ccccc1O [Salsalate] | < 50 | < 50 | < 50 | –
38 | CC(C)OC(=O)[C@H](C)N[P@](=O)(OC[C@H]1O[C@@H](n2ccc(=O)[nH]c2=O)[C@](C)(F)[C@@H]1O)Oc1ccccc1 [Sofosbuvir] | < 50 | < 50 | – | inhibition ([3]; read-out: IC50, cAMP, M): < 50%
39 | CCN1CCCC1CNC(=O)c1cc(S(N)(=O)=O)ccc1OC (stereo not drawn) [Sulpiride] | < 50 | < 50 | < 50 | –
40 | CCCSc1nc(N[C@@H]2C[C@H]2c2ccc(F)c(F)c2)c2nnn([C@@H]3C[C@H](OCCO)[C@@H](O)[C@H]3O)c2n1 [Ticagrelor] | – | < 50 | < 50 | inhibition at up to 10 µM [1, 5]: < 50%
41 | Nc1nc(N)c2nc(-c3ccccc3)c(N)nc2n1 [Triamterene] | < 50 | < 50 | < 50 | –
